Assays:
[1] = target: Mitogen-activated protein kinase 1 (Homo sapiens) (UniProt P28482); assay: Inhibition of human full length ERK2 expressed in Escherichia coli cell assessed as substrate phosphorylation using fluorescence-labelled peptides as substrate at 420 uM after 90 mins by microfluidic peptide phosphorylation assay
[2] = target: T1, Serine/threonine-protein kinase D3 (Homo sapiens) (UniProt O94806); assay: Inhibition of human full length PKD3 expressed in baculovirus assessed as substrate phosphorylation using fluorescence-labelled peptides as substrate at 2 uM after 90 mins by microfluidic peptide phosphorylation assay
T1 sequence (whole entry): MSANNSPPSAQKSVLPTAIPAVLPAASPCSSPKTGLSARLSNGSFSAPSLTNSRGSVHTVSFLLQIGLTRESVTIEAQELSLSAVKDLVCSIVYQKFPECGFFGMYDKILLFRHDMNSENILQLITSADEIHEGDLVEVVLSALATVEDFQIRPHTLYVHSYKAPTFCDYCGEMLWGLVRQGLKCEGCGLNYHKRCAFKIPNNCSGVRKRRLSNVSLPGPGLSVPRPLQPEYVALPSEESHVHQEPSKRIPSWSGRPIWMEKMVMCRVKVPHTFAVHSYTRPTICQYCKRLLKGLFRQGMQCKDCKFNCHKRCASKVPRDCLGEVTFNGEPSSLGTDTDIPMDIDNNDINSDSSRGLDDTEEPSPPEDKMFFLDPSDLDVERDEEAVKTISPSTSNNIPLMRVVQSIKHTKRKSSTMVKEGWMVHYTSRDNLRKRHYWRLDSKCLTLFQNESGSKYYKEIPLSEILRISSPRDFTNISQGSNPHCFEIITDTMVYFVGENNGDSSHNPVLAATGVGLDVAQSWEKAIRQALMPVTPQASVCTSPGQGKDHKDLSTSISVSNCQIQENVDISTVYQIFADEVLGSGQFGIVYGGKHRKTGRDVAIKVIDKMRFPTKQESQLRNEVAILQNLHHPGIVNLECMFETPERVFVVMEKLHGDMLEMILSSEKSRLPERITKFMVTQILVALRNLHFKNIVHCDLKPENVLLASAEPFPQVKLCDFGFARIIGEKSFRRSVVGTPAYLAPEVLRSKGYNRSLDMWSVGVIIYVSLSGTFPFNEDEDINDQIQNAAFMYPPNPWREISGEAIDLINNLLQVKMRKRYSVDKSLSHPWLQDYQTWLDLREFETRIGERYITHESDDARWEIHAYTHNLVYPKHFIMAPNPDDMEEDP

[3] = target: RAF proto-oncogene serine/threonine-protein kinase (Homo sapiens) (UniProt P04049); assay: Inhibition of human truncated c-Raf expressed in baculovirus assessed as substrate phosphorylation using fluorescence-labelled peptides as substrate at 2 uM after 90 mins by microfluidic peptide phosphorylation assay
[4] = target: Aurora kinase B (Homo sapiens) (UniProt Q96GD4); conditions: 0.1 uM
Description: Inhibition of human full length AurB expressed in baculovirus assessed as substrate phosphorylation using fluorescence-labelled peptides as substrate at 0.1 uM after 90 mins by microfluidic peptide phosphorylation assay

[5] = target: RAF proto-oncogene serine/threonine-protein kinase (Homo sapiens) (UniProt P04049); assay: Inhibition of human truncated c-Raf expressed in baculovirus assessed as substrate phosphorylation using fluorescence-labelled peptides as substrate at 0.1 uM after 90 mins by microfluidic peptide phosphorylation assay
[6] = target: Ribosomal protein S6 kinase alpha-1 (Homo sapiens) (UniProt Q15418); assay: Inhibition of human full length RSK1 expressed in baculovirus assessed as substrate phosphorylation using fluorescence-labelled peptides as substrate at 95 uM after 90 mins by microfluidic peptide phosphorylation assay
[7] = target: Glycogen synthase kinase-3 beta (Homo sapiens) (UniProt P49841); assay: Inhibition of human full length GSK-3 beta expressed in baculovirus assessed as substrate phosphorylation using fluorescence-labelled peptides as substrate at 0.06 uM after 90 mins by microfluidic peptide phosphorylation assay
[8] = target: T2, Protein kinase C zeta type (Homo sapiens) (UniProt Q05513); assay: Inhibition of human full length PKC zeta expressed in baculovirus assessed as substrate phosphorylation using fluorescence-labelled peptides as substrate at 0.06 uM after 90 mins by microfluidic peptide phosphorylation assay
T2 sequence (whole entry): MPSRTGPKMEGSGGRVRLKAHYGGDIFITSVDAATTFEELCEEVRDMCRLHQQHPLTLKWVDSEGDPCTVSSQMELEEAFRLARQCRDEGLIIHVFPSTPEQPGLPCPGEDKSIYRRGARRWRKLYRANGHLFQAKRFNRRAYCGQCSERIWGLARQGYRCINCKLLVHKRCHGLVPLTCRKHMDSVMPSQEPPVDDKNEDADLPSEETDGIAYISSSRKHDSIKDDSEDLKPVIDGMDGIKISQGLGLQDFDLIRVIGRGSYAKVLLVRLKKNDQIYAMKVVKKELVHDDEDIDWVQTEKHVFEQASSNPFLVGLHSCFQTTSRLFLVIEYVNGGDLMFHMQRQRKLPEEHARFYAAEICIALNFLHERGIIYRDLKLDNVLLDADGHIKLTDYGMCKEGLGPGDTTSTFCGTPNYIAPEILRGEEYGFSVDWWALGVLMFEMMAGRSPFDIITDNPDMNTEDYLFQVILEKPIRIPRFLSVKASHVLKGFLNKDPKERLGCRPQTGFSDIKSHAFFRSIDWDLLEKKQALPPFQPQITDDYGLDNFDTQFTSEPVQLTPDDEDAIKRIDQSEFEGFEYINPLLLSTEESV

[9] = target: RAC-alpha serine/threonine-protein kinase (Homo sapiens) (UniProt P31749); assay: Inhibition of human AKT1 catalytic domain expressed in baculovirus assessed as substrate phosphorylation using fluorescence-labelled peptides as substrate at 8 uM after 90 mins by microfluidic peptide phosphorylation assay
[10] = target: T3, Testis-specific serine/threonine-protein kinase 2 (Homo sapiens) (UniProt Q96PF2); assay: Inhibition of human full length TSSK2 expressed in baculovirus assessed as substrate phosphorylation using fluorescence-labelled peptides as substrate at 8 uM after 90 mins by microfluidic peptide phosphorylation assay
T3 sequence (whole entry): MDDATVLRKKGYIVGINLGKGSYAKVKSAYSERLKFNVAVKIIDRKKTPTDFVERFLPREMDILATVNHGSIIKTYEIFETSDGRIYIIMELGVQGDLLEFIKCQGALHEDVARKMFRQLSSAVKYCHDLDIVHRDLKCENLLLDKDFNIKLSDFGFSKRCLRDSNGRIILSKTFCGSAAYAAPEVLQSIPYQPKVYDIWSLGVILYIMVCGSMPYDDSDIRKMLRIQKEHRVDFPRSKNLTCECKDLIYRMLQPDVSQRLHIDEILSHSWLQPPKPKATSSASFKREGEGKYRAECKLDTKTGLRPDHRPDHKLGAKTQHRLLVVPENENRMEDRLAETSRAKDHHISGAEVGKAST

[11] = target: Ribosomal protein S6 kinase alpha-5 (Homo sapiens) (UniProt O75582); assay: Inhibition of human full length MSK1 expressed in baculovirus assessed as substrate phosphorylation using fluorescence-labelled peptides as substrate at 70 uM after 90 mins by microfluidic peptide phosphorylation assay
[12] = target: Ribosomal protein S6 kinase alpha-2 (Homo sapiens) (UniProt Q15349); assay: Inhibition of human full length RSK3 expressed in baculovirus assessed as substrate phosphorylation using fluorescence-labelled peptides as substrate at 1000 uM after 90 mins by microfluidic peptide phosphorylation assay
Chain of Ribosomal protein S6 kinase alpha-2 (Homo sapiens) (Q15349 whole entry): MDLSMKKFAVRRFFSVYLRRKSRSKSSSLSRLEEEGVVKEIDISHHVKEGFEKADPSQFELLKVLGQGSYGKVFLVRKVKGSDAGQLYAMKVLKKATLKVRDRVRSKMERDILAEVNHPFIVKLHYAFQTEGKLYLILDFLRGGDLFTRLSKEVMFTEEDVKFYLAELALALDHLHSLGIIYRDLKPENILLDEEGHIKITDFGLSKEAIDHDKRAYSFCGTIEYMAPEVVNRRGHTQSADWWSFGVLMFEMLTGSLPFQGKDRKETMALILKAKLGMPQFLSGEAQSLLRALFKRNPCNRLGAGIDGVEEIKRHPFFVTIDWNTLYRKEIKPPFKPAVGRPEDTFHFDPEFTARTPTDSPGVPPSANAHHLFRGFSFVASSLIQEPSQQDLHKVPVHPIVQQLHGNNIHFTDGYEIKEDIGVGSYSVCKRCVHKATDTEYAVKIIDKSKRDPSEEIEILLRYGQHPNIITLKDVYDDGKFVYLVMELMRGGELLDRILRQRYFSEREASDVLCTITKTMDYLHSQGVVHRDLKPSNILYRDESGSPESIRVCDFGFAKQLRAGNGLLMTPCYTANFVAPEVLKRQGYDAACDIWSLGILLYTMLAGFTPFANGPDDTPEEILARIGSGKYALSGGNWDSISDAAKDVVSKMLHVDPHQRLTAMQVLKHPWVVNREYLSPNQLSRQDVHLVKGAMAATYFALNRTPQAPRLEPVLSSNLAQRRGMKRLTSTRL

Chain of RAF proto-oncogene serine/threonine-protein kinase (Homo sapiens) (P04049 whole entry, the tested form may be a part): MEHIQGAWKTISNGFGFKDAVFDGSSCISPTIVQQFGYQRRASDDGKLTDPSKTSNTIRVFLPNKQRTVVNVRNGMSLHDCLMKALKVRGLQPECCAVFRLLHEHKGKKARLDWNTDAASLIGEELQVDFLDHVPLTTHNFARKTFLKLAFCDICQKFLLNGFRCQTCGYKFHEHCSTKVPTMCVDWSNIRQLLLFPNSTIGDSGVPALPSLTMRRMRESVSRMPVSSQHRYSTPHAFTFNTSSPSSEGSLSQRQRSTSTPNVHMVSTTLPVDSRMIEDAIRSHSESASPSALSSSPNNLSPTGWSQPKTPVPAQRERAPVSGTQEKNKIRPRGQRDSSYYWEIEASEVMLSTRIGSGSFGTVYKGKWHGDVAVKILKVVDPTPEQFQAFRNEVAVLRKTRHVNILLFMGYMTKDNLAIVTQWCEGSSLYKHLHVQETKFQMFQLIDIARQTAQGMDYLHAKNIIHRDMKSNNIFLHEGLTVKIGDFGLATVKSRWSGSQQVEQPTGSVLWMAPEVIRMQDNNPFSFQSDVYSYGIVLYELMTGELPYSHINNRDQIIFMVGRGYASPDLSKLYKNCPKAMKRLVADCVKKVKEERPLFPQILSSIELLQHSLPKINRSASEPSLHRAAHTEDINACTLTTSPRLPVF
Chain of Glycogen synthase kinase-3 beta (Homo sapiens) (P49841 whole entry, looked up): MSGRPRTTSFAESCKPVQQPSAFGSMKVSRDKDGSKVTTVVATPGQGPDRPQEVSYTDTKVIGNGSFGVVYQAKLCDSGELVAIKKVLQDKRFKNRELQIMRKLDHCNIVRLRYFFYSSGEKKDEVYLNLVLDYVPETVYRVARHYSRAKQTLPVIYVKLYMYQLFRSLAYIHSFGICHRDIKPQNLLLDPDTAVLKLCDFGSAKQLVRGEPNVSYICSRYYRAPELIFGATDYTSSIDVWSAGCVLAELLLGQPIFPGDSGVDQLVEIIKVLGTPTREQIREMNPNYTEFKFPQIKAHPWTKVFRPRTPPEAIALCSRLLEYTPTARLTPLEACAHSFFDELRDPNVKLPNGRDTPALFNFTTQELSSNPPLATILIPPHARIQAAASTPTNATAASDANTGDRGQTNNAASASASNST
Chain of RAC-alpha serine/threonine-protein kinase (Homo sapiens) (P31749 whole entry, the tested form may be a part): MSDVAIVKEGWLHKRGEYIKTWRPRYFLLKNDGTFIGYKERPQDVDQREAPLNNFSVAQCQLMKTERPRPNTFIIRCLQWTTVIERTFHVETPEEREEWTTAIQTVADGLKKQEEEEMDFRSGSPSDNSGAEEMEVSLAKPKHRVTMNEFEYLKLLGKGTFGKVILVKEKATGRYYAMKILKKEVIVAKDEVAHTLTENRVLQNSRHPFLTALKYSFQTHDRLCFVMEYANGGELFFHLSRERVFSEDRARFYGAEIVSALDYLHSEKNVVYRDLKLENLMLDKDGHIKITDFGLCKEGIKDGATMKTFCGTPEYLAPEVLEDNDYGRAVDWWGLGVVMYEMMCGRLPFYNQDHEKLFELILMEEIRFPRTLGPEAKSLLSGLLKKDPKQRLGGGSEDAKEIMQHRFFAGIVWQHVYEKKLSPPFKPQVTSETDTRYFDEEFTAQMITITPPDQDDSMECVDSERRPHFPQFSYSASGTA
Chain of Ribosomal protein S6 kinase alpha-5 (Homo sapiens) (O75582 whole entry, looked up): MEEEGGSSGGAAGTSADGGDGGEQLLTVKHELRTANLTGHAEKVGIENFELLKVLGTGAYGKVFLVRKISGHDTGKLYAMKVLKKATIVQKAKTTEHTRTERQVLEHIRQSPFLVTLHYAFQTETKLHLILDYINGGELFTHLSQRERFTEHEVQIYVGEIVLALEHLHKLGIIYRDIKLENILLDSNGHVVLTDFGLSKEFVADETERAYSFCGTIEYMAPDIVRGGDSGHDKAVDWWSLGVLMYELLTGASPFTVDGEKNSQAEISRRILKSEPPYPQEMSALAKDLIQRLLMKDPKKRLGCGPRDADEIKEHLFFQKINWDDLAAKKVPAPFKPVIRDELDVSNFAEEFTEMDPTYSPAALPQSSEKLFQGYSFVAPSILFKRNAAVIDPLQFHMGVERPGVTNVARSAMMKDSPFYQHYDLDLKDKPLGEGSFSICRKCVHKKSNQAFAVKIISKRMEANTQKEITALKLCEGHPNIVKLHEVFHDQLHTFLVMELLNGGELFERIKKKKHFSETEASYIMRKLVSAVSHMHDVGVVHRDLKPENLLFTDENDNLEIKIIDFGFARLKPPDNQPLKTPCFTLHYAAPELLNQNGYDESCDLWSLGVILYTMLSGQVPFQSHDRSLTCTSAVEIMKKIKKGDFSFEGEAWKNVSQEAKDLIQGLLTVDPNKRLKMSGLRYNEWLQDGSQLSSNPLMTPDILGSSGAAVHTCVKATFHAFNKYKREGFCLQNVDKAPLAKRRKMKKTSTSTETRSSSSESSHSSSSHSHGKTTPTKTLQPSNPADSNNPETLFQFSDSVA
Chain of Mitogen-activated protein kinase 1 (Homo sapiens) (P28482 whole entry): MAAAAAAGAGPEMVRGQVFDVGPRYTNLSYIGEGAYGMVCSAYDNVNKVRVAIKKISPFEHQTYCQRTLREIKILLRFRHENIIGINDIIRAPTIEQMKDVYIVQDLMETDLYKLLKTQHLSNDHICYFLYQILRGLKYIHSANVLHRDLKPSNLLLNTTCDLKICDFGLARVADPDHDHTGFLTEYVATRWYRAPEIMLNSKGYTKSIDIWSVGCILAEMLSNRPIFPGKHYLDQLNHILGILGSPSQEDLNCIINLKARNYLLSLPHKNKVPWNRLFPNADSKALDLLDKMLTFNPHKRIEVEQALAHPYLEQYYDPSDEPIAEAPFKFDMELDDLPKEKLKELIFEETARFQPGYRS
Chain of Aurora kinase B (Homo sapiens) (Q96GD4 whole entry, the tested form may be a part): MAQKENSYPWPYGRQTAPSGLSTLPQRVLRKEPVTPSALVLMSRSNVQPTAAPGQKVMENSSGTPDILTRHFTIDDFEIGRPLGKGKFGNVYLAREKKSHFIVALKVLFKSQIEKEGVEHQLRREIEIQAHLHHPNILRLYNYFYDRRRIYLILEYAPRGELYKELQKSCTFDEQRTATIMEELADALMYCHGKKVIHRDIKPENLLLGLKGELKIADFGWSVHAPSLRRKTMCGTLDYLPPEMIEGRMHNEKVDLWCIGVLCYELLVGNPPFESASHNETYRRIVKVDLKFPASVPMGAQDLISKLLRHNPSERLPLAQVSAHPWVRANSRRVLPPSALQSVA
Chain of Ribosomal protein S6 kinase alpha-1 (Homo sapiens) (Q15418 whole entry): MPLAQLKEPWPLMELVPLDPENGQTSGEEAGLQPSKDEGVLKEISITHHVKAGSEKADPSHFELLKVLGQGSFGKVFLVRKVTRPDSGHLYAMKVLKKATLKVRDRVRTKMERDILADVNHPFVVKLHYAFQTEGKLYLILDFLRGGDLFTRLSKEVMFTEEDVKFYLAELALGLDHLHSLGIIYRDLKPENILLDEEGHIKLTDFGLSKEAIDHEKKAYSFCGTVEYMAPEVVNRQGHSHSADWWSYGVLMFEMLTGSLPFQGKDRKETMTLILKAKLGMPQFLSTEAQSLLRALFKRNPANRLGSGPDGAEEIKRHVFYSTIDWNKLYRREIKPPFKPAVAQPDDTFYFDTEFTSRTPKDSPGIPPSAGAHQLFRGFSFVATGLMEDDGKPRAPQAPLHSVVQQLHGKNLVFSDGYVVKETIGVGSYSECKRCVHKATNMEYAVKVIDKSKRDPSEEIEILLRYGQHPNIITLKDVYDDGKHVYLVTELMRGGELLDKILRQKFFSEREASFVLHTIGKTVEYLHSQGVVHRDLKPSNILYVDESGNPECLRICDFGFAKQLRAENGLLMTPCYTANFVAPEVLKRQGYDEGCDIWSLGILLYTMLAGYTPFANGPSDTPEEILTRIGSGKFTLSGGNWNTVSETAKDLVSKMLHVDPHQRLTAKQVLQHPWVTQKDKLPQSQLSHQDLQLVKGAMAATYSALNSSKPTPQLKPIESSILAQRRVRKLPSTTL

## c1nc(N2CCOCC2)c2nc[nH]c2n1
[1]
  inhibition: 68%

## NC1CCN(c2ncnc3[nH]ccc23)CC1
[2]
  inhibition: 0%
[3]
  inhibition: 7%

## C[C@H](CN(C)C)Oc1nc(Nc2cc3cccc(Cl)c3cn2)cnc1C#N
[4]
  inhibition: 0%
[5]
  inhibition: 4%

## NCCc1ccc(-c2ncnc3[nH]cnc23)cc1
[6]
  inhibition: 83.5%

## NC1(Cc2ccc(Cl)cc2)CCN(c2ncnc3[nH]ccc23)CC1
[7]
  inhibition: 0%
[8]
  inhibition: 0%

## NCC1CCN(c2ncnc3[nH]ccc23)CC1
[9]
  inhibition: 96%
[10]
  inhibition: 23.5%

## CNCc1ccc(-c2ncnc3[nH]cnc23)cc1
[11]
  inhibition: 72.5%

## c1cnc2[nH]ccc2c1
[12]
  inhibition: 71%
